Test results published in BindingDB's records for doi:10.1021/jm9806650 (Institute of Chemical Technology, 1999).

Test: The compound was tested in vitro for inhibition of HIV-1 replication

Compound | IC50
COc1ccc(-c2c3c4cc(OC)c(O)cc4oc(=O)c3n3ccc4cc(O)c(OC)cc4c23)cc1O [3,10-Dihydroxy-13-(3-hydroxy-4-methoxy-phenyl)-2,11-dimethoxy-5-oxa-6b-aza-dibenzo[a,i]fluoren-6-one] | 1 µM
COc1ccc(-c2c3n(c4c(=O)oc5cc(OS(=O)(=O)O)c(OC)cc5c24)CCc2cc(OC)c(OC)cc2-3)cc1O | 12 µM
COc1ccc(-c2c3c4cc(OC)c(O)cc4oc(=O)c3n3ccc4c(OC)c(OC)c(OC)cc4c23)cc1O [3-Hydroxy-13-(3-hydroxy-4-methoxy-phenyl)-2,9,10,11-tetramethoxy-5-oxa-6b-aza-dibenzo[a,i]fluoren-6-one] | 20 µM

Now from value to compound:

IC50 | Compound
18 µM | COc1ccc(-c2c3n(c4c(=O)oc5cc(O)c(OC)cc5c24)CCc2c-3cc(OC)c(OC)c2OC)cc1O [3-Hydroxy-13-(3-hydroxy-4-methoxy-phenyl)-2,9,10,11-tetramethoxy-7,8-dihydro-5-oxa-6b-aza-dibenzo[a,i]fluoren-6-one]
20 µM | COc1ccc(-c2c3n(c4c(=O)oc5cc(OS(=O)(=O)O)c(OC)cc5c24)C(O)Cc2c-3cc(OC)c(OC)c2OC)cc1O (stereo not given) [7-Hydroxy-13-(3-hydroxy-4-methoxy-phenyl)-2,9,10,11-tetramethoxy-7,8-dihydro-5-oxa-6b-aza-dibenzo[a,i]fluoren-6-one sodium sulfonate]
